Measurements taken from ChEMBL document CHEMBL4840349, “Macrocyclic Diterpenoid Constituents of Euphorbia deflexa, an Endemic Spurge from Greece” (J Nat Prod, 2021).
The source made the active and inactive calls. No cut-off for these calls is given here.

Experiments:
SK-MEL-28 = assay: Cytotoxicity against human SK-MEL-28 cells assessed as cell growth inhibition incubated for 68 hrs by MTT assay; format: functional, cell-based; settings: SK-MEL-28, 68 h
HeLa = assay: Cytotoxicity against human HeLa cells assessed as cell growth inhibition incubated for 68 hrs by MTT assay; format: functional, cell-based
Streptococcus pyogenes = assay: Antibacterial activity against Streptococcus pyogenes DSM 20565-0316-001 incubated for 20 hrs by MTT based double dilution method; format: functional, organism-based
Staphylococcus aureus = assay: Antibacterial activity against Staphylococcus aureus DSM 20231 incubated for 20 hrs by MTT based double dilution method; format: functional, organism-based
PC-3 = assay: Cytotoxicity against human PC-3 cells assessed as cell growth inhibition incubated for 68 hrs by MTT assay; format: functional, cell-based; settings: PC-3, 68 h
HepG2 = assay: Cytotoxicity against human HepG2 cells assessed as cell growth inhibition incubated for 68 hrs by MTT assay; format: functional, cell-based; settings: HepG2, 68 h

| Structure (SMILES) | IC50 (SK-MEL-28) | IC50 (HeLa) | Activity (Streptococcus pyogenes) | Activity (Staphylococcus aureus) | IC50 (PC-3) | IC50 (HepG2) |
| --- | --- | --- | --- | --- | --- | --- |
| CC(=O)OC[C@@]12Cc3c(ccc(C)c3O)[C@]1(C)[C@@H](OC(C)=O)[C@@]1(O)C[C@@](C)(OC(C)=O)[C@H](OC(=O)c3ccccc3)[C@@H]1[C@H]2OC(C)=O | > 10 µM | > 10 µM | – | – | – | – |
| C/C=C(/C)C(=O)OC[C@@]1(C)[C@H]2[C@@H]3C=C(C)[C@@H](O)[C@]4(O)[C@@H](OC(=O)/C(C)=C\C)C(C)=C[C@@]4(C3=O)[C@H](C)C[C@]21OC(C)=O | > 10 µM | 9.8 µM | inactive | inactive | – | – |
| CC(=O)OCC(=O)O[C@@H]1[C@H]2[C@@H](OC(=O)c3ccccc3)[C@@H](C)C[C@]2(O)[C@H](O)[C@]2(O)[C@H](OC(C)=O)[C@@]1(OC(C)=O)C[C@H]1C(=O)C(C)(C)C[C@@H]12 | > 10 µM | > 10 µM | – | – | > 10 µM | > 10 µM |
| C/C=C(/C)C(=O)O[C@@H]1C2[C@@H](OC(=O)c3ccccc3)[C@@H](C)C[C@]2(O)C(=O)[C@@](C)(O)[C@H]2CC(C)(C)C(=O)[C@]2(O)[C@H]2O[C@@]12COC(C)=O (some centres not stated) | > 10 µM | > 10 µM | inactive | inactive | > 10 µM | > 10 µM |
| C/C=C(/C)C(=O)O[C@H]1C(C)=C[C@]23C(=O)[C@@H](C=C(C)[C@@H](O)[C@]12O)[C@H]1[C@@H](C[C@H]3C)C1(C)C | > 10 µM | > 10 µM | – | – | > 10 µM | > 10 µM |
| C=C1C(=O)O[C@@H]2C3O[C@]3(C)CC/C=C(\C)CC[C@@H]12 (some centres not stated) | 4.9 µM | 2.1 µM | – | – | > 10 µM | 5.6 µM |
| C=C1[C@H](O)[C@H]2[C@@H](OC(=O)c3ccccc3)[C@](C)(OC(C)=O)[C@@H](OC(=O)c3ccccc3)[C@]2(O)[C@@H](O)[C@@H](C)/C=C/C(C)(C)[C@H](O)[C@H](OC(C)=O)[C@H]1OC(C)=O | > 10 µM | 9.9 µM | inactive | inactive | > 10 µM | > 10 µM |
| CC(=O)OC[C@@]12Cc3c(ccc(C)c3O)[C@]1(C)[C@@H](OC(C)=O)[C@]1(O)[C@H]([C@@H](OC(=O)c3ccccc3)[C@@H](C)[C@H]1OC(C)=O)[C@H]2OC(C)=O | > 10 µM | > 5.8 µM | – | – | – | – |
